Assay results published in patent US20200237759A1, “DOSAGE REGIME AND METHOD FOR TREATING PULMONARY ARTERIAL HYPERTENSION” (Altavant Sciences GmbH, priority 2019, published 2020).

Columns and labels:
urine 5-HIAA/24 hours = experiment: Part 2 MAD biomarker: urine 5-HIAA/24 hours change from Day 1; assay type: in vivo, human
Description: (§1) Biomarkers were to be evaluated in Part 2 by measuring concentrations of serotonin (5-hydroxytryptamine [5-HT]) in serum and 5-hydroxyindoleacetic acid (5-HIAA) in plasma and urine. As well, the relationship of biomarkers to PK parameters was to be evaluated.
(§2) The biomarker analysis was to be based on the Biomarker Population (all subjects with evaluable biomarker measurements at baseline [Day 1 predose] and at least one after dosing [Day 7 or Day 14]).
(§3) Biomarker data were to be collected only in Part 2. The following biomarkers were to be analyzed: • Serum 5-HT • Plasma 5-HIAA • Urine 5-HIAA/24 hours (as measured, adjusted, estimated, and per gram creatinine)
Linear regression was to be performed using biomarker changes, absolute and relative (%), from Day 1, at predose on Day 7 or Day 14 versus AUC0-24, Cmax, and Cmin in corresponding study days. The slopes and corresponding 95% confidence intervals (CIs) were to be tabulated. […]
The biomarker portion of the study was conducted in Part 2 MAD using the Biomarker Population. The biomarkers evaluated were serum 5-HT and plasma 5-HIAA, as well as urine 5-HIAA/24 hours (as measured, adjusted, estimated, and per gram creatinine). Urinary 5-HIAA was determined by a validated (21 C.F.R. 58, GLP-compliant) method using liquid chromatographic separation and tandem mass spectrometry detection. […]
Biomarker data were analyzed for each KAR5585 dose separately, for all KAR5585 doses pooled, and for all placebo subjects pooled.
Urine 5 HIAA/24 hour was analyzed in 4 different manners: as measured in the 24-hour collection and (in order to correct for any collection errors) adjusted for creatinine excretion, estimated by the expected creatinine excretion for the subject (as defined in and expressed per gram creatinine. Results were similar for each of the 4 manners and are presented in this report for measured urine. Tables and figures for adjusted, estimated, and per-gram creatinine results are presented in Section 14. […]

serum 5-HT = experiment: Part 2 MAD biomarker: serum 5-HT change from Day 1; assay type: in vivo, human
Description: as §1, §2, §3
Linear regression was to be performed using biomarker changes, absolute and relative (%), from Day 1, at predose on Day 7 or Day 14 versus AUC0-24, Cmax, and Cmin in corresponding study days. The slopes and corresponding 95% confidence intervals (CIs) were to be tabulated.
Summary statistics (mean, standard deviation [SD], median, minimum [Min], and maximum [Max]) were to be tabulated for each biomarker, by Cohort, with absolute and relative (%) changes from Day 1 predose.
The values were to be tabulated with P values testing whether the difference of changes was equal to 0.
The biomarker portion of the study was conducted in Part 2 MAD using the Biomarker Population. The biomarkers evaluated were serum 5-HT and plasma 5-HIAA, as well as urine 5-HIAA/24 hours (as measured, adjusted, estimated, and per gram creatinine). Urinary 5-HIAA was determined by a validated (21 C.F.R. 58, GLP-compliant) method using liquid chromatographic separation and tandem mass spectrometry detection.
The Biomarker Population consisted of all subjects with evaluable baseline (Day 1 predose) and at least one postdose (Day 7 or Day 14) biomarker measurements.
Biomarker data were analyzed for each KAR5585 dose separately, for all KAR5585 doses pooled, and for all placebo subjects pooled. […]

SMILES | correlation of change from baseline in measured urine 5-HIAA with AUC0-24, Cmax, C12 or AUC0-12 (urine 5-HIAA/24 hours; Day 7) | correlation of change from baseline in measured urine 5-HIAA with AUC0-24, Cmax, C12 or AUC0-12 (urine 5-HIAA/24 hours; Day 14) | correlation of change from baseline in serum 5-HT with AUC0-24, Cmax, C12 or AUC0-12 (serum 5-HT; Day 7) | correlation of change from baseline in serum 5-HT with AUC0-24, Cmax, C12 or AUC0-12 (serum 5-HT; Day 14) | absolute and percent changes from Day 1 in creatinine-normalized urine 5-HIAA versus placebo (urine 5-HIAA/24 hours; Days 7 and 14, all dose groups) | mean difference of percent changes from Day 1 in serum 5-HT compared to placebo (serum 5-HT; Day 7, 200 mg fed dose group)
Nc1nc(O[C@H](c2ccc(Cl)cc2-c2ccccc2)C(F)(F)F)cc(N2CCC3(CC2)CN[C@H](C(=O)O)C3)n1 [KAR5417, (S)-8-(2-amino-6-((R)-1-(5-chloro-[1,1′-biphenyl]-2-yl)-2,2,2-trifluoroeth-oxy)pyrimidin-4-yl)-2,8-diazaspiro[4.5]decane-3-carboxylic acid] | no significant correlations | significantly correlated | no significant correlations | correlated |  | 
CCOC(=O)[C@@H]1CC2(CCN(c3cc(O[C@H](c4ccc(Cl)cc4-c4ccccc4)C(F)(F)F)nc(N)n3)CC2)CN1 [KAR5585, (S)-ethyl 8-(2-amino-6-((R)-1-(5-chloro-[1,1′-biphenyl]-2-yl)-2,2,2-trifluoroethoxy)pyrimidin-4-yl)-2,8-diazaspiro[4.5]decane-3-carboxylate] |  |  |  |  | statistically significant in favor of KAR5585 | statistically significant
